Experimental data as given in US20090209605A1, “NEMATICIDAL COMPOSITIONS” (Devgen N.V., priority 2004, published 2009).

Columns and labels:
Type in all cases: in vivo
[1] = system: root-knot nematode (Meloidogyne spp); assay: Nematicide field trial on cucumber: root galling and yield; settings: for Average root galling: 0-5 Lamberti scale
Procedure: Open ground grown cucumber (Cucumis sativus cv Carine) were grown on sandy soil with a natural root-knot nematode (Meloidogyne spp) population. Soil samples, collected prior to planting, contained on average 8 J2 juveniles per 100 g soil. A program of 4 applications with intervals of about 14 days was started six days after transplantation.
(§1) An experimental pattern at Complete Randomized Blocks with four replicas was adopted. Besides the experimental products, each test also included an untreated control and a treatment with the standard commercial product VYDATE 10L (10%) applied in accordance to label instructions.
[…] The level of nematode attack of the root system at the time of harvesting was assessed by means of the lamberti scoring.

[2] = system: Meloidogyne incognita nematodes; assay: Pot Assay 1: Meloidogyne infection of potato, egg masses/galls on roots; settings: potato in pot, week 8 after inoculation
Procedure: 500 ml clay pots were filled with 400 ml of silver sand. One tuber of potato ( Solanum tuberosum cv. Bintje) was planted in the sand. After 2 to 3 weeks incubation, the potato plant was sufficiently developed to be inoculated.
Plants were grown under the usual standard greenhouse conditions at 14° C.-18° C., with 16 hours light and 8 hours dark and 80-90% relative humidity. The pots were watered using individual drippers and fertilizers were added under the form of macro- and micro nutrients according to plant growth requirements. When needed, the plants were sprayed with fungicides and insecticides.
The compounds as described herein were added one day before inoculation. The compounds were dissolved in a 20 ml DMSO-solution and spread over the sand surface. The final concentration is calculated under the assumption that the compound is diffused entirely in the pot. This process occurred during two days at the normal greenhouse conditions described above.
After compound incubation, approximately 1500 juveniles of Meloidogyne incognita nematodes were added to the pots.
The pots were incubated at the described greenhouse conditions until nematode development was completed. At week 8 after inoculation the number of galls formed on the roots was counted after washing off the sandy substrate. Also the effect of the compound on the plant development was recorded.
Every compound was tested in three replicates. Positive control plants were treated with different concentrations of aldicarb, a known nematicide. Negative controls involved 12 replicates of double negative controls (no compound, no nematode), 12 replicates of single negative controls (no compound, no DMSO, with nematode), 24 replicates of DMSO controls (DMSO solution, with nematode).
As assessment of the root development was taken into account.

Meloidogyne incognita = assay: Root infestation on agar plate: root knot count on potato microplant roots; settings: 60 μM in agar, galls counted 5 weeks after inoculation, four replicates
Procedure: 9 cm petri dishes were filled with a 15 ml agar. One stem cutting of a potato microplant (Solanum tuberosum cv. Desirée) was placed on top of the agar layer. After 2 to 3 weeks of incubation at 20° C., the root system was sufficiently developed to be inoculated.
The test compounds (see Table 1) were added 2 days before inoculation by way of spreading a 2 ml DMSO-solution with the compound over the agar and allowing the compound to diffuse in the agar during two days at constant temperature of 20° C. During incubation, the plates are protected from light in a dark incubator. The resulting concentration of each compound in each agar plate was 60 μM.
After incubation, approximately 400 axenic juveniles of Meloidogyne incognita species were added to the plate.
The plates were incubated in the dark at a constant temperature of 20° C. and 5 weeks after inoculation the number of galls formed on the roots were determined by counting. Also any toxic effect of the test compounds on the roots was recorded. 8 weeks after inoculation the plates were stored at low temperature.
Each compound was tested in four replicates. Positive controls were treated with different concentrations of Aldicarb, a known nematicide. Negative controls included 5 replicates of double negative controls (no compound, no nematode), 5 replicates of single negative controls (no compound, with nematode) and 5 replicates of DMSO controls (DMSO solution, with nematode).

[3] = system: stubby root nematodes (Paratrichodorus), stunt nematodes (Tylenchorhynchus spp.), root lesion nematodes (Pratylenchus spp.) and root knot nematodes …; assay: Nematicide field trial on carrots: % deformed carrots
Procedure: Garden carrots were grown in the open field. The soil contained high levels of stubby root nematodes (Paratrichodorus), stunt nematodes (Tylenchorhynchus spp.), root lesion nematodes (Pratylenchus spp.) and root knot nematodes (Meloidogyne spp.).
as §1
In carrots, nematodes cause deformation such as stunting, dwarfing, twisting, splitting and bearding. For these experiments, the total percentage of deformed carrots were considered, as these are not marketed for human consumption and are of no commercial interest.
Three different tests have been performed (Tables 9, 10 and 11), each containing an untreated and commercial reference control. All treatments were statistically different from untreated control.

Which “Average yield of marketable fruits” value ([1]; Product Rate 500 g ai/ha) does the source give for `Cc1cc(C2CC2)nc(Nc2ccccc2)n1` [XLIV] here?
Its value is 7.3 kg/plant/pot.

And the Average root galling ([1]; Product Rate 500 g ai/ha)?
The Average root galling was 2.5.

And the “Average yield of marketable fruits” value ([1]; Product Rate 1500 g ai/ha)?
The value was 8.3 kg/plant/pot.

What about the Average root galling ([1]; Product Rate 1500 g ai/ha) of the same compound?
Its Average root galling is 2.5.

And the “number of egg masses (galls) on roots, Replicate 3” value (shortened to “number of egg masses … Replicate 3”) ([2]; 0.5 μM)?
Its value is 5.

What about the “number of egg masses (galls) on roots, Replicate 1” value (“number of egg masses … Replicate 1” below) ([2]; 2 μM) of the same compound?
Its value is 20.

What about the “number of egg masses … Replicate 3” value ([2]; 2 μM) of the same compound?
Its value is 15.

And the “number of egg masses … Replicate 1” value ([2]; 10 μM)?
The value was 20.

And the “number of egg masses … Replicate 1” value ([2]; 50 μM)?
Its value is 15.

And the “number of egg masses (galls) on roots, Replicate 2” value ([2]; 50 μM)?
The value was 25.

And the “number of egg masses … Replicate 3” value ([2]; 50 μM)?
Its value is 5.

And the “Root knot count, average of the replicate counts” value (Meloidogyne incognita)?
The value was 9.5.

What about the “% total deformed” value ([3]; test of Table 9, Product Rate 500 g ai/ha) of the same compound?
Its value is 37.41%.

What about the “% total deformed” value ([3]; test of Table 9, Product Rate 1500 g ai/ha) of the same compound?
Its value is 44.85%.

And the “% total deformed” value ([3]; test of Table 9, Product Rate 3000 g ai/ha)?
Its value is 37.10%.
